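Exposure lasted 48 hours, with cells grown in 96-well plates and compounds tested at five concentrations. GI50 is the concentration that inhibits growth by half. TGI: concentration producing complete growth inhibition.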 Where a SMILES comes first, the peptide text is derived from it. [ ]: non-standard residue; d: D form. The star is where a group is joined. ξ: configuration not given here. NMeN = CN[C@@H](CC(N)=O)C(=O)O; NMeV = CN[C@H](C(=O)O)C(C)C; ξNMeV = CNC(C(=O)O)C(C)C; Boc = CC(C)(C)OC(=O)*; ξNMeA = CNC(C)C(=O)O
Key:
Assay in all cases: NCI tumour cell line growth inhibition, 48 h
[1] = test system: HOP-62 NSCLC
[2] = test system: SK-MEL-28 melanoma
[3] = test system: OVCAR-3 ovarian
[4] = test system: IGROV1 ovarian
[5] = test system: SR leukemia
[6] = test system: M14 melanoma
[7] = test system: MALME-3M melanoma
[8] = test system: NCI-H226 lung
[9] = test system: NCI-H23 lung
[10] = test system: OVCAR-5 ovarian

SMILES: Nc1ncn(C2C=C(CO)C(O)C2O)c(=O)n1 (configuration not stated)
- TGI [1]: > 100 µM
- TGI [2]: > 100 µM
- TGI [3]: > 100 µM
- TGI [4]: > 100 µM
- TGI [5]: > 100 µM
- TGI [6]: > 100 µM
- TGI [7]: > 100 µM
- TGI [8]: > 100 µM

SMILES: Cc1cc(-c2nnc(N)nc2-c2ccc(F)cc2)cc(Cl)n1
- GI50 [1]: > 100 µM
- TGI [1]: > 100 µM
- GI50 [2]: > 100 µM
- TGI [2]: > 100 µM
- GI50 [3]: > 100 µM
- TGI [3]: > 100 µM
- GI50 [9]: 54.3 µM
- TGI [9]: > 100 µM
- GI50 [10]: > 100 µM
- TGI [10]: > 100 µM
- GI50 [4]: > 100 µM
- TGI [4]: > 100 µM
- GI50 [5]: 64 µM
- TGI [5]: > 100 µM
- GI50 [6]: > 100 µM
- TGI [6]: > 100 µM
- GI50 [7]: > 100 µM
- TGI [7]: > 100 µM
- GI50 [8]: 46.9 µM
- TGI [8]: > 100 µM

SMILES: CCCCCCCCCCC(O)C1CCC(C(O)CCC(O)C2CCC(CCCCCCC[C@H](O)CC3=C[C@@H](C)OC3=O)O2)O1 (some centres not stated)
- TGI [1]: > 100 µM
- TGI [2]: > 100 µM
- TGI [3]: 45 µM
- TGI [9]: 69.4 µM
- TGI [10]: > 100 µM
- TGI [4]: > 100 µM
- TGI [5]: > 100 µM
- TGI [6]: > 100 µM
- TGI [7]: > 100 µM
- TGI [8]: 40.4 µM

SMILES: COC(=O)C(C)N(C)C(=O)[C@H](CC(N)=O)N(C)C(=O)[C@@H]1CCCN1C(=O)[C@H](C(C)C)N(C)C(=O)C(C(C)C)N(C)C(=O)[C@@H](NC(=O)OC(C)(C)C)C(C)C (some centres not stated) (Boc-V[ξNMeV][NMeV]P[NMeN][ξNMeA]-OMe)
- GI50 [1]: > 100 µM
- TGI [1]: > 100 µM
- GI50 [2]: > 100 µM
- TGI [2]: > 100 µM
- GI50 [3]: > 100 µM
- TGI [3]: > 100 µM
- TGI [9]: > 50 µM
- GI50 [10]: > 100 µM
- TGI [10]: > 100 µM
- GI50 [4]: > 100 µM
- TGI [4]: > 100 µM
- TGI [5]: > 100 µM
- GI50 [6]: > 100 µM
- TGI [6]: > 100 µM
- TGI [7]: > 100 µM
- GI50 [8]: > 100 µM
- TGI [8]: > 100 µM

SMILES: Cc1occc1C(=S)Nc1ccc(Cl)c(/C=N/OC(C)C)c1
- TGI [1]: > 60.9 µM
- TGI [2]: > 56.4 µM
- TGI [3]: 30.9 µM
- TGI [9]: 52.3 µM
- TGI [10]: 49.4 µM
- TGI [4]: > 57.2 µM
- TGI [5]: > 59.9 µM
- TGI [6]: 57.9 µM
- TGI [7]: > 57.4 µM
- TGI [8]: 37.6 µM

SMILES: CC(C)CNc1nc(-c2ccccc2)nc2ccccc12
- GI50 [1]: 17.7 µM
- TGI [1]: 31.5 µM
- GI50 [2]: 17.3 µM
- TGI [2]: 32.7 µM
- GI50 [3]: 15.7 µM
- TGI [3]: 31 µM
- GI50 [9]: 17 µM
- TGI [9]: 34.5 µM
- GI50 [10]: 17.4 µM
- TGI [10]: 32.2 µM
- GI50 [4]: 27.4 µM
- TGI [4]: > 100 µM
- GI50 [5]: 10.1 µM
- TGI [5]: 30.9 µM
- GI50 [6]: 13.5 µM
- TGI [6]: 26.4 µM
- GI50 [7]: 13.4 µM
- TGI [7]: 26.4 µM
- GI50 [8]: 16.9 µM
- TGI [8]: 35 µM

SMILES: CC/C(=C(/CC)c1ccc(O)cc1)c1ccc([O-])cc1.CC/C(=C(/CC)c1ccc(O)cc1)c1ccc([O-])cc1.O=C([CH-]C(=O)c1ccccc1)c1ccccc1.O=C([CH-]C(=O)c1ccccc1)c1ccccc1.[Ti+4]
- GI50 [1]: 14.7 µM
- TGI [1]: 28.3 µM
- GI50 [2]: 15.8 µM
- TGI [2]: > 100 µM
- GI50 [3]: 27.7 µM
- TGI [3]: > 100 µM
- GI50 [10]: 23.9 µM
- TGI [10]: 46.7 µM
- GI50 [4]: 16.1 µM
- TGI [4]: 37.7 µM
- GI50 [5]: 9.89 µM
- TGI [5]: > 100 µM
- GI50 [6]: 8.34 µM
- GI50 [7]: 7.53 µM
- TGI [7]: 20.3 µM
- GI50 [8]: 23.6 µM
- TGI [8]: 45.5 µM

SMILES: COc1ccc2c(CN3CCC[C@H]3C(=O)O)cc3cc4c(cc3c2c1)OCO4
- GI50 [1]: 19.4 µM
- TGI [1]: 86.1 µM
- GI50 [2]: 15.5 µM
- TGI [2]: 36.8 µM
- GI50 [3]: 12 µM
- TGI [3]: 63 µM
- GI50 [10]: 38.1 µM
- TGI [10]: > 100 µM
- GI50 [4]: 25.4 µM
- TGI [4]: > 100 µM
- GI50 [5]: 6.23 µM
- TGI [5]: > 100 µM
- GI50 [6]: 13.3 µM
- TGI [6]: 27.3 µM
- GI50 [7]: 2.59 µM
- TGI [7]: 17.7 µM
- GI50 [8]: 17 µM
- TGI [8]: > 100 µM

SMILES: COc1cc2cc(C(=O)Nc3cc(N)c4ccccc4c3CCCl)[nH]c2c(OC)c1OC
- GI50 [1]: 0.0244 µM
- TGI [1]: 0.165 µM
- GI50 [2]: 0.0923 µM
- GI50 [3]: 0.0262 µM
- GI50 [9]: 0.0166 µM
- TGI [9]: 0.264 µM
- GI50 [10]: 0.0533 µM
- TGI [10]: 2.13 µM
- GI50 [4]: 0.0146 µM
- TGI [4]: 3.51 µM
- GI50 [5]: < 0.005 µM
- TGI [5]: 0.0804 µM
- GI50 [7]: 0.119 µM
- TGI [7]: 0.274 µM
- GI50 [8]: 0.115 µM
- TGI [8]: 0.308 µM

SMILES: COc1cc2c(Oc3ccc4[nH]c(C)cc4c3F)ccnc2cc1OCC1(N)CC1
- GI50 [1]: 1.59 µM
- TGI [1]: 35.6 µM
- GI50 [2]: 1.41 µM
- TGI [2]: 2.95 µM
- GI50 [3]: 0.809 µM
- TGI [3]: 24.7 µM
- GI50 [10]: 3.37 µM
- TGI [10]: 10.3 µM
- GI50 [4]: 1.16 µM
- TGI [4]: 13 µM
- GI50 [5]: 0.395 µM
- TGI [5]: 4.31 µM
- GI50 [6]: 1.02 µM
- TGI [6]: 2.53 µM
- GI50 [7]: 1.21 µM
- TGI [7]: 3.03 µM
- GI50 [8]: 0.894 µM
- TGI [8]: 14.9 µM

SMILES: O=c1[nH]ccc2nc(N3CCC(O)CC3)nc(Nc3cccc(C(F)(F)F)c3)c12
- GI50 [1]: 4.4 µM
- TGI [1]: 18.8 µM
- GI50 [2]: 4.63 µM
- TGI [2]: 17.4 µM
- GI50 [3]: 1.34 µM
- TGI [3]: 3.98 µM
- GI50 [9]: 3.24 µM
- TGI [9]: 13.9 µM
- GI50 [10]: 28.3 µM
- TGI [10]: 94.3 µM
- GI50 [5]: 0.707 µM
- TGI [5]: 26.9 µM
- GI50 [6]: 1.55 µM
- TGI [6]: 8.23 µM
- GI50 [7]: 2.61 µM
- TGI [7]: 7.87 µM
- GI50 [8]: 3.2 µM
- TGI [8]: 17.7 µM

From PubChem BioAssay (NCI)
